# Target: P. falciparum apicoplast DNA polymerase (Pf-apPOL) (Plasmodium falciparum, UniProt Q8ILY1)
# Test: Fluorescence-based high-throughput DNA polymerase assay (molecular beacon), primary screen and dose-response
# Assay type: biochemical
# Settings: for DNA Pol: 90 min, 10 µM; for % inhibition apPOL 180' 2.5 / % inhibition apPOL 180' 5 / % inhibition apPOL 180' 10 / % inhibition apPOL 180' 20 / % inhibition apPOL 180' 40 / % inhibition apPOL 180' 80: read at 180'
# In short: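 Single-point screening used 10 µM compound with 20 nM polymerase, 20 nM hairpin substrate and 6 µM dNTPs for 90 min at 25 °C. Confirmatory titrations (2.5–80 µM) followed fluorescence at three times, and IC50 was derived from a fit including a cooperativity term n.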
# [1] = 'DNA Pol' of the 186 hits list (primary screen value)
# P. falciparum apicoplast DNA polymerase (Pf-apPOL), sequence (Q8ILY1 entry or part of it): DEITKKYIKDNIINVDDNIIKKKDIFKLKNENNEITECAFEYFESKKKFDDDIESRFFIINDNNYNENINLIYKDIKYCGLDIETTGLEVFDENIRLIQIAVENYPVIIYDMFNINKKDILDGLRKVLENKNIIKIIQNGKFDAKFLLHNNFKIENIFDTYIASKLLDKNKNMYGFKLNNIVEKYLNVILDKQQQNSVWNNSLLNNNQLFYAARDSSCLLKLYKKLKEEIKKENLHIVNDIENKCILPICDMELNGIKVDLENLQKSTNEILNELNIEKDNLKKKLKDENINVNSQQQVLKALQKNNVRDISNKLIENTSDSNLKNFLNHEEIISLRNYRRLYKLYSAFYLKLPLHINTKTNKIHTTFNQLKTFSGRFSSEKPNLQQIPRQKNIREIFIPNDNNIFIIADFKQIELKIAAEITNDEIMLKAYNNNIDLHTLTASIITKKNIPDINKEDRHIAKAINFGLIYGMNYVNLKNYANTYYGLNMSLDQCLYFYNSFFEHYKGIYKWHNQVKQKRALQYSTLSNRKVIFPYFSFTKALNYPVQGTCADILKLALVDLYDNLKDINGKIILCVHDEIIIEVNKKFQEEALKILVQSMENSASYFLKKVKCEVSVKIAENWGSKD
smiles,measurement,setting,value
Cl.NC(CO)C(=O)NNCc1ccc(O)c(O)c1O (centres unmarked) [KU0260493],DNA Pol,[1],84
same,DNA Pol,DNA Pol (primary screen value),84
same,% inhibition Apo pol 10',"DRC-1, concentration 2.5",2.4672%
same,% inhibition Apo pol 10',"DRC-1, concentration 5",2.015%
same,% inhibition Apo pol 10',"DRC-1, concentration 10",15.4444%
same,% inhibition Apo pol 10',"DRC-1, concentration 20",26.1922%
same,% inhibition Apo pol 10',"DRC-1, concentration 40",36.4325%
same,% inhibition Apo pol 10',"DRC-1, concentration 80",40.9646%
same,% inhibition Apol 90',"DRC-1, concentration 2.5",-5.483%
same,% inhibition Apol 90',"DRC-1, concentration 5",-0.705%
same,% inhibition Apol 90',"DRC-1, concentration 10",31.8192%
same,% inhibition Apol 90',"DRC-1, concentration 20",46.4998%
same,% inhibition Apol 90',"DRC-1, concentration 40",57.8018%
same,% inhibition Apol 90',"DRC-1, concentration 80",63.3107%
same,% inhibition apPOL 180',"DRC-1, concentration 2.5",-3.278%
same,% inhibition apPOL 180',"DRC-1, concentration 5",12.5243%
same,% inhibition apPOL 180',"DRC-1, concentration 10",43.7705%
same,% inhibition apPOL 180',"DRC-1, concentration 20",57.9843%
same,% inhibition apPOL 180',"DRC-1, concentration 40",66.1218%
same,% inhibition apPOL 180',"DRC-1, concentration 80",68.6937%
same,% inhibition Apo pol 5',"DRC-2, concentration 2.5",-5.63%
same,% inhibition Apo pol 5',"DRC-2, concentration 5",3.49%
same,% inhibition Apo pol 5',"DRC-2, concentration 10",23%
same,% inhibition Apo pol 5',"DRC-2, concentration 20",36%
same,% inhibition Apo pol 5',"DRC-2, concentration 40",47%
same,% inhibition Apo pol 5',"DRC-2, concentration 80",54%
same,% inhibition Apol 40',"DRC-2, concentration 2.5",-1.63%
same,% inhibition Apol 40',"DRC-2, concentration 5",15%
same,% inhibition Apol 40',"DRC-2, concentration 10",38%
same,% inhibition Apol 40',"DRC-2, concentration 20",53%
same,% inhibition Apol 40',"DRC-2, concentration 40",62%
same,% inhibition Apol 40',"DRC-2, concentration 80",65%
same,% inhibition ApPOL 90',"DRC-2, concentration 2.5",1.48%
same,% inhibition ApPOL 90',"DRC-2, concentration 5",22%
same,% inhibition ApPOL 90',"DRC-2, concentration 10",45%
same,% inhibition ApPOL 90',"DRC-2, concentration 20",60%
same,% inhibition ApPOL 90',"DRC-2, concentration 40",67%
same,% inhibition ApPOL 90',"DRC-2, concentration 80",68%
same,% inhibition apPOL 180',"DRC-2, concentration 2.5",11%
same,% inhibition apPOL 180',"DRC-2, concentration 5",32%
same,% inhibition apPOL 180',"DRC-2, concentration 10",53%
same,% inhibition apPOL 180',"DRC-2, concentration 20",67%
same,% inhibition apPOL 180',"DRC-2, concentration 40",71%
same,% inhibition apPOL 180',"DRC-2, concentration 80",72%
O=C(NC(C(Cl)Cl)S(=O)(=O)c1ccccc1)c1ccccc1 (centres unmarked) [KU0045239],DNA Pol,[1],41
same,DNA Pol,DNA Pol (primary screen value),41
same,% inhibition Apo pol 10',"DRC-1, concentration 2.5",21.4346%
same,% inhibition Apo pol 10',"DRC-1, concentration 5",25.395%
same,% inhibition Apo pol 10',"DRC-1, concentration 10",48.7805%
same,% inhibition Apo pol 10',"DRC-1, concentration 20",67.0388%
same,% inhibition Apo pol 10',"DRC-1, concentration 40",77.5747%
same,% inhibition Apo pol 10',"DRC-1, concentration 80",80.3513%
same,% inhibition Apol 90',"DRC-1, concentration 2.5",13.64%
same,% inhibition Apol 90',"DRC-1, concentration 5",16.8163%
same,% inhibition Apol 90',"DRC-1, concentration 10",39.9321%
same,% inhibition Apol 90',"DRC-1, concentration 20",58.936%
same,% inhibition Apol 90',"DRC-1, concentration 40",71.3995%
same,% inhibition Apol 90',"DRC-1, concentration 80",76.3715%
same,% inhibition apPOL 180',"DRC-1, concentration 2.5",5.305%
same,% inhibition apPOL 180',"DRC-1, concentration 5",7.81%
same,% inhibition apPOL 180',"DRC-1, concentration 10",29.3225%
same,% inhibition apPOL 180',"DRC-1, concentration 20",48.9159%
same,% inhibition apPOL 180',"DRC-1, concentration 40",64.7265%
same,% inhibition apPOL 180',"DRC-1, concentration 80",71.27%
same,% inhibition Apo pol 5',"DRC-2, concentration 2.5",4%
same,% inhibition Apo pol 5',"DRC-2, concentration 5",18%
same,% inhibition Apo pol 5',"DRC-2, concentration 10",26%
same,% inhibition Apo pol 5',"DRC-2, concentration 20",59%
same,% inhibition Apo pol 5',"DRC-2, concentration 40",65%
same,% inhibition Apo pol 5',"DRC-2, concentration 80",46%
same,% inhibition Apol 40',"DRC-2, concentration 2.5",11%
same,% inhibition Apol 40',"DRC-2, concentration 5",25%
same,% inhibition Apol 40',"DRC-2, concentration 10",36%
same,% inhibition Apol 40',"DRC-2, concentration 20",69%
same,% inhibition Apol 40',"DRC-2, concentration 40",76%
same,% inhibition Apol 40',"DRC-2, concentration 80",62%
same,% inhibition ApPOL 90',"DRC-2, concentration 2.5",11%
same,% inhibition ApPOL 90',"DRC-2, concentration 5",24%
same,% inhibition ApPOL 90',"DRC-2, concentration 10",35%
same,% inhibition ApPOL 90',"DRC-2, concentration 20",68%
same,% inhibition ApPOL 90',"DRC-2, concentration 40",76%
same,% inhibition ApPOL 90',"DRC-2, concentration 80",64%
same,% inhibition apPOL 180',"DRC-2, concentration 2.5",6.53%
same,% inhibition apPOL 180',"DRC-2, concentration 5",11%
same,% inhibition apPOL 180',"DRC-2, concentration 10",21%
same,% inhibition apPOL 180',"DRC-2, concentration 20",58%
same,% inhibition apPOL 180',"DRC-2, concentration 40",69%
same,% inhibition apPOL 180',"DRC-2, concentration 80",58%
Cc1nc(C)c2c(n1)N(CC1CCCCC1)C(=O)CC2 [KU0218606],DNA Pol,"186 hits, DNA Pol (screen value), unit not given",50
same,DNA Pol,"'DNA Pol' (screen value), unit not given",50
same,% inhibition Apo pol 10' 2.5,"DRC-1, read at 10', concentration 2.5",34.0428%
same,% inhibition Apo pol 10' 5,"DRC-1, read at 10', concentration 5",39.9001%
same,% inhibition Apo pol 10' 10,"DRC-1, read at 10', concentration 10",47.3749%
same,% inhibition Apo pol 10' 20,"DRC-1, read at 10', concentration 20",48.9825%
same,% inhibition Apo pol 10' 40,"DRC-1, read at 10', concentration 40",54.7667%
same,% inhibition Apo pol 10' 80,"DRC-1, read at 10', concentration 80",55.4322%
same,% inhibition Apol 90' 2.5,"DRC-1, read at 90', concentration 2.5",24.6813%
same,% inhibition Apol 90' 5,"DRC-1, read at 90', concentration 5",31.9392%
same,% inhibition Apol 90' 10,"DRC-1, read at 90', concentration 10",42.478%
same,% inhibition Apol 90' 20,"DRC-1, read at 90', concentration 20",47.74%
same,% inhibition Apol 90' 40,"DRC-1, read at 90', concentration 40",54.1171%
same,% inhibition Apol 90' 80,"DRC-1, read at 90', concentration 80",56.5278%
same,% inhibition apPOL 180' 2.5,"DRC-1, concentration 2.5",16.0854%
same,% inhibition apPOL 180' 5,"DRC-1, concentration 5",24.5851%
same,% inhibition apPOL 180' 10,"DRC-1, concentration 10",35.963%
same,% inhibition apPOL 180' 20,"DRC-1, concentration 20",43.6778%
same,% inhibition apPOL 180' 40,"DRC-1, concentration 40",53.1041%
same,% inhibition apPOL 180' 80,"DRC-1, concentration 80",57.3534%
same,% inhibition Apo pol 5',"DRC-2, concentration 5",24%
same,% inhibition Apo pol 5',"DRC-2, concentration 20",27%
same,% inhibition Apo pol 5',"DRC-2, concentration 40",30%
same,% inhibition Apo pol 5',"DRC-2, concentration 80",27%
same,% inhibition Apol 40',"DRC-2, concentration 2.5",24%
same,% inhibition Apol 40',"DRC-2, concentration 5",30%
same,% inhibition Apol 40',"DRC-2, concentration 40",42%
same,% inhibition ApPOL 90',"DRC-2, concentration 10",38%
same,% inhibition ApPOL 90',"DRC-2, concentration 20",42%
same,% inhibition apPOL 180',"DRC-2, concentration 20",38%
same,% inhibition apPOL 180',"DRC-2, concentration 40",42%
same,% inhibition Apo pol 5' 2.5,"DRC-2, read at 5', concentration 2.5",20%
same,% inhibition Apo pol 5' 5,"DRC-2, read at 5', concentration 5",24%
same,% inhibition Apo pol 5' 10,"DRC-2, read at 5', concentration 10",28%
same,% inhibition Apo pol 5' 20,"DRC-2, read at 5', concentration 20",27%
same,% inhibition Apo pol 5' 40,"DRC-2, read at 5', concentration 40",30%
same,% inhibition Apo pol 5' 80,"DRC-2, read at 5', concentration 80",27%
same,% inhibition Apol 40' 2.5,"DRC-2, read at 40', concentration 2.5",24%
same,% inhibition Apol 40' 5,"DRC-2, read at 40', concentration 5",30%
same,% inhibition Apol 40' 10,"DRC-2, read at 40', concentration 10",36%
same,% inhibition Apol 40' 20,"DRC-2, read at 40', concentration 20",39%
same,% inhibition Apol 40' 40,"DRC-2, read at 40', concentration 40",42%
same,% inhibition Apol 40' 80,"DRC-2, read at 40', concentration 80",41%
same,% inhibition ApPOL 90' 2.5,"DRC-2, read at 90', concentration 2.5",25%
same,% inhibition ApPOL 90' 5,"DRC-2, read at 90', concentration 5",31%
same,% inhibition ApPOL 90' 10,"DRC-2, read at 90', concentration 10",38%
same,% inhibition ApPOL 90' 20,"DRC-2, read at 90', concentration 20",42%
same,% inhibition ApPOL 90' 40,"DRC-2, read at 90', concentration 40",45%
same,% inhibition ApPOL 90' 80,"DRC-2, read at 90', concentration 80",47%
same,% inhibition apPOL 180' 2.5,"DRC-2, concentration 2.5",18%
same,% inhibition apPOL 180' 5,"DRC-2, concentration 5",26%
same,% inhibition apPOL 180' 10,"DRC-2, concentration 10",34%
same,% inhibition apPOL 180' 20,"DRC-2, concentration 20",38%
same,% inhibition apPOL 180' 40,"DRC-2, concentration 40",42%
same,% inhibition apPOL 180' 80,"DRC-2, concentration 80",46%
